Reference: patent US12679878B2, “CRF2 receptor agonists and their use in therapy” (SANOFI, priority 2020, dated 2026)
Starred links: 1 amine or outer side, 2 acyl side, 3 side chain; linkers in the order of their positions; H or OH if unused. Non-standard residues stand in square brackets, D forms with d. Residues, ends and D or L forms follow the SMILES beside them. Groups on a side chain read outwards from the residue. *: point of attachment. C18 diacid = O=C(O)CCCCCCCCCCCCCCCCC(=O)*; γGlu = O=C(O)[C@H](CCC(=O)[*:2])N[*:1]; AEEA = NCCOCCOCC(=O)O; Aib = CC(C)(N)C(=O)O

Assays:
CRF1R receptor = target: T1, CRF1R receptor (Homo sapiens, UniProt P34998); assay: cAMP activity at anti-target CRF1R, CHO-K1 cell line clone 2 (Example 19.10); assay type: cell-based; details: CRF1R CHO-K1 clone 2; for EC50: 0% HSA, read-out: EC50 [nM] 0% HSA; for Emax: 100% = Sauvagine at 100 nM
T1 construct: host or cells: CHO-K1 clone 2
T1 sequence (P34998 24-415): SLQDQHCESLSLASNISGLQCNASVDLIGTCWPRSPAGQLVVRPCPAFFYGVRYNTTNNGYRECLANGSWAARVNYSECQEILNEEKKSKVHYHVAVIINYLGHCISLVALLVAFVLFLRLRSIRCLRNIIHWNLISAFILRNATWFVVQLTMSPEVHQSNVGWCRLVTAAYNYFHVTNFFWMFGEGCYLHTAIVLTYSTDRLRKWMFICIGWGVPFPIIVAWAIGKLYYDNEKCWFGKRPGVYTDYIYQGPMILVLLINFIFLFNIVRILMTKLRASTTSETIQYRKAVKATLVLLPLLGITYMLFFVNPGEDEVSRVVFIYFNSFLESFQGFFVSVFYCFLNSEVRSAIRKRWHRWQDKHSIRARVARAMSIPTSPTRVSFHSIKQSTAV
In short: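 A CRF1R-overexpressing CHO-K1 line (clone 2) was grown in F12/10% FBS/G418 and frozen in aliquots before use. The cAMP assay followed the preceding procedure, with 100% activation defined by Sauvagine at 100 nM.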

human CRF2α receptor = target: T2, human CRF2α receptor (Homo sapiens, UniProt Q13324); assay: cAMP agonism at human CRF2 α receptor in TeloHEAC cells (Example 7); assay type: cell-based; details: cAMP HTRF, TeloHEAC cells stably expressing human CRF2 α, 0% HSA; read-out: EC50 [nM], 0% HSA
T2 construct: expressed in transfected cells; host or cells: TeloHEAC
T2 sequence (Q13324 1-411): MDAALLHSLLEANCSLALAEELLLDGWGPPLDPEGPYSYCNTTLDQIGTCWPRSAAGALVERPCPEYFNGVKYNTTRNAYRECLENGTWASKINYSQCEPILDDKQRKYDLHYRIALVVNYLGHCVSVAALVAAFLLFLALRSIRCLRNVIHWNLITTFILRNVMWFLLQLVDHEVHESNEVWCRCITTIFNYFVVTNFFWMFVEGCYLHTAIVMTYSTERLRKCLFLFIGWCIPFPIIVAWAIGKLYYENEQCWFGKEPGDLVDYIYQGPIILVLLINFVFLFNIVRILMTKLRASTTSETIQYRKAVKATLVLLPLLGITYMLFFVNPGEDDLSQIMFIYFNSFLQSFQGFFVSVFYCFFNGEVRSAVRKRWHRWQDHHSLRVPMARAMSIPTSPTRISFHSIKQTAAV
In short: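 Thawed frozen stably transfected cells in HBSS/20 mM HEPES (0% or 0.1% HSA) plus 2 mM IBMX were exposed to compound at 2000 cells/well for 30 min at room temperature. Intracellular cAMP was read by HTRF (665/620 nm ratio) after 1 h lysis; EC50 was derived with 1000 nM urocortin 2 set as 100%.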

Row | Structure (SMILES) | EC50 (CRF1R receptor) [nM] | Emax (CRF1R receptor) [%] | EC50 (human CRF2α receptor) [nM]
1 | CC[C@H](C)[C@H](N)C(=O)N[C@H](C(=O)N[C@@H](CC(C)C)C(=O)N[C@@H](CO)C(=O)N[C@@H](CC(C)C)C(=O)N[C@@H](CC(=O)O)C(=O)N[C@H](C(=O)N1CCC[C@H]1C(=O)N[C@H](C(=O)N[C@@H](CCCCN)C(=O)N[C@@H](CC(C)C)C(=O)N[C@@H](CCCCNC(=O)COCCOCCNC(=O)COCCOCCNC(=O)CC[C@H](NC(=O)CCCCCCCCCCCCCCCCC(=O)O)C(=O)O)C(=O)N[C@@H](CCC(N)=O)C(=O)N[C@H](C(=O)N[C@@H](CC(C)C)C(=O)N[C@@H](CC(C)C)C(=O)N[C@@H](CCCCN)C(=O)N[C@@H](CCC(N)=O)C(=O)N[C@@H](CCC(=O)O)C(=O)N[C@@H](CCCNC(=N)N)C(=O)N[C@@H](CCC(N)=O)C(=O)N[C@@H](CCCCN)C(=O)N[C@@H](CCCCN)C(=O)N[C@@H](CCC(=O)O)C(=O)N[C@@H](CCCNC(=N)N)C(=O)N[C@@H](CCC(=O)O)C(=O)N[C@@H](CCC(N)=O)C(=O)N[C@@H](C)C(=O)N[C@@H](CCC(=O)O)C(=O)N[C@H](C(=O)N[C@@H](CC(N)=O)C(=O)N[C@@H](CCCCN)C(=O)N[C@@H](CCC(N)=O)C(=O)N[C@H](C(=O)N[C@@H](CC(C)C)C(=O)N[C@@H](C)C(=O)N[C@@H](CCC(N)=O)C(=O)N[C@H](C(N)=O)C(C)C)[C@@H](C)CC)[C@@H](C)O)[C@@H](C)CC)[C@@H](C)CC)C(C)C)C(C)C [compound 96] (H-IVLSLDVPIKLK([AEEA-AEEA-γGlu-C18 diacid])QILLKQERQKKEREQAETNKQILAQV-NH2; N-terminus assumed) | > 100 | 2.3 | 0.38
2 | CC[C@H](C)[C@H](N)C(=O)N[C@H](C(=O)N[C@@H](CC(C)C)C(=O)N[C@@H](CO)C(=O)N[C@@H](CC(C)C)C(=O)N[C@@H](CC(=O)O)C(=O)N[C@@H](C(=O)N1CCC[C@H]1C(=O)N[C@H](C(=O)N[C@@H](CCCCN)C(=O)N[C@@H](CC(C)C)C(=O)N[C@@H](CCCCNC(=O)COCCOCCNC(=O)COCCOCCNC(=O)CC[C@H](NC(=O)CCCCCCCCCCCCCCCCC(=O)O)C(=O)O)C(=O)N[C@@H](CCC(N)=O)C(=O)N[C@H](C(=O)N[C@@H](CC(C)C)C(=O)N[C@@H](CC(C)C)C(=O)N[C@@H](CCCCN)C(=O)N[C@@H](CCC(N)=O)C(=O)N[C@@H](CCC(=O)O)C(=O)N[C@@H](CCCNC(=N)N)C(=O)N[C@@H](CCC(N)=O)C(=O)N[C@@H](CCCCN)C(=O)N[C@@H](CCCCN)C(=O)N[C@@H](CCC(N)=O)C(=O)N[C@@H](CCCNC(=N)N)C(=O)N[C@@H](CCC(=O)O)C(=O)N[C@@H](CCC(N)=O)C(=O)N[C@@H](C)C(=O)N[C@@H](CCC(=O)O)C(=O)N[C@H](C(=O)N[C@@H](CC(N)=O)C(=O)N[C@@H](CCCCN)C(=O)N[C@@H](CCC(N)=O)C(=O)N[C@H](C(=O)N[C@@H](CC(C)C)C(=O)N[C@@H](C)C(=O)N[C@@H](CCC(N)=O)C(=O)N[C@H](C(N)=O)C(C)C)[C@@H](C)CC)[C@@H](C)O)[C@@H](C)CC)[C@@H](C)CC)C(C)C)C(C)C [compound 102] (H-IVLSLD[dV]PIKLK([AEEA-AEEA-γGlu-C18 diacid])QILLKQERQKKQREQAETNKQILAQV-NH2; N-terminus assumed) | > 100 | 9 | 0.07
3 | CC[C@H](C)[C@H](N)C(=O)N[C@H](C(=O)N[C@@H](CC(C)C)C(=O)N[C@@H](CO)C(=O)N[C@@H](CC(C)C)C(=O)N[C@@H](CC(=O)O)C(=O)N[C@H](C(=O)N1CCC[C@H]1C(=O)N[C@H](C(=O)N[C@@H](CCCCN)C(=O)N[C@@H](CC(C)C)C(=O)N[C@@H](CCCCNC(=O)COCCOCCNC(=O)COCCOCCNC(=O)CC[C@H](NC(=O)CCCCCCCCCCCCCCCCC(=O)O)C(=O)O)C(=O)N[C@@H](CCC(N)=O)C(=O)N[C@H](C(=O)N[C@@H](CC(C)C)C(=O)N[C@@H](CC(C)C)C(=O)N[C@@H](CCC(=O)O)C(=O)N[C@@H](CCC(N)=O)C(=O)N[C@@H](CCC(=O)O)C(=O)N[C@@H](CCCNC(=N)N)C(=O)N[C@@H](CCC(N)=O)C(=O)N[C@@H](CCCCN)C(=O)NC(C)(C)C(=O)N[C@@H](CCC(N)=O)C(=O)N[C@@H](CCCNC(=N)N)C(=O)N[C@@H](CCC(=O)O)C(=O)N[C@@H](CCC(N)=O)C(=O)N[C@@H](C)C(=O)N[C@@H](CCC(=O)O)C(=O)N[C@H](C(=O)N[C@@H](CC(N)=O)C(=O)N[C@@H](CCCCN)C(=O)N[C@@H](CCC(N)=O)C(=O)N[C@H](C(=O)N[C@@H](CC(C)C)C(=O)N[C@@H](C)C(=O)N[C@@H](CCC(N)=O)C(=O)N[C@H](C(N)=O)C(C)C)[C@@H](C)CC)[C@@H](C)O)[C@@H](C)CC)[C@@H](C)CC)C(C)C)C(C)C [compound 103] (H-IVLSLDVPIKLK([AEEA-AEEA-γGlu-C18 diacid])QILLEQERQK[Aib]QREQAETNKQILAQV-NH2) | > 100 | 14 | 0.84
4 | CC[C@H](C)[C@H](N)C(=O)N[C@H](C(=O)N[C@@H](CC(C)C)C(=O)N[C@@H](CO)C(=O)N[C@@H](CC(C)C)C(=O)N[C@@H](CC(=O)O)C(=O)N[C@H](C(=O)N1CCC[C@H]1C(=O)N[C@H](C(=O)N[C@@H](CCCCN)C(=O)N[C@@H](CC(C)C)C(=O)N[C@@H](CCCCNC(=O)COCCOCCNC(=O)COCCOCCNC(=O)CC[C@H](NC(=O)CCCCCCCCCCCCCCCCC(=O)O)C(=O)O)C(=O)N[C@@H](CCC(N)=O)C(=O)N[C@H](C(=O)N[C@@H](CC(C)C)C(=O)N[C@@H](CC(C)C)C(=O)N[C@@H](CCCCN)C(=O)N[C@@H](CCC(N)=O)C(=O)N[C@@H](CCC(=O)O)C(=O)N[C@@H](CCCNC(=N)N)C(=O)N[C@@H](CCC(N)=O)C(=O)N[C@@H](CCCCN)C(=O)NC(C)(C)C(=O)N[C@@H](CCC(N)=O)C(=O)N[C@@H](CCCNC(=N)N)C(=O)N[C@@H](CCC(=O)O)C(=O)N[C@@H](CCC(N)=O)C(=O)N[C@@H](C)C(=O)N[C@@H](CCC(=O)O)C(=O)N[C@H](C(=O)N[C@@H](CC(N)=O)C(=O)N[C@@H](CCCCN)C(=O)N[C@@H](CCC(N)=O)C(=O)N[C@H](C(=O)N[C@@H](CC(C)C)C(=O)N[C@@H](C)C(=O)N[C@@H](CCC(N)=O)C(=O)N[C@H](C(N)=O)C(C)C)[C@@H](C)CC)[C@@H](C)O)[C@@H](C)CC)[C@@H](C)CC)C(C)C)C(C)C [compound 104] (H-IVLSLDVPIKLK([AEEA-AEEA-γGlu-C18 diacid])QILLKQERQK[Aib]QREQAETNKQILAQV-NH2) | > 100 | 3.7 | 0.32
